Like-named read-outs stand apart in the source and are kept apart here.
Legend:
AML cell lines = experiment: Combination of CNDAC with hypomethylating agents in AML cell lines; assay type: cell-based; details: more apparent if cells are treated with hypomethylating agents first
Procedure: Previous studies by the applicant have shown that in AML cell lines, the active metabolite of sapacitabine, CNDAC, is synergistic with hypomethylating agents and the synergy is more apparent if cells are treated with hypomethylating agents first. The present invention relates to the identification of new and previously undefined subgroups of AML patients for which treatment with an alternating regimen of sapacitabine and decitabine is particularly effective.

[1] = tested on: patients with a variety of cancers; details: phase I, humans; cited from earlier work
colon cancer = details: model of colon cancer; cited from earlier work
[2] = tested on: cell line that is resistant to cytarabine; details: cited from earlier work
[3] = Antecedent MDS/MPN No and WBC ≥10,000
[4] = Antecedent MDS/MPN Yes and WBC <10,000
[5] = SWOG Not unfavourable and WBC <10,000
[6] = SWOG Unfavourable and WBC ≥10,000
[7] = all randomized patients (n=241 per arm)

Text for AML patients: For 482 patients randomized to receive decitabine/sapacitabine (n=241) vs. decitabine only (n=241), randomization was stratified by the presence of antecedent MDS or MPN, peripheral white blood cell count (WBC <10,000 vs. ≥10,000) and bone marrow blast percentage (≥50% vs. <50%).

N#C[C@H]1[C@H](O)[C@@H](CO)O[C@H]1n1ccc(N)nc1=O [CNDAC, 2′-C-cyano-2′-deoxy-1-β-D-arabino-pentofuranosyl cytosine]
interaction with hypomethylating agents (AML cell lines): synergistic

Nc1ncn([C@H]2C[C@H](O)[C@@H](CO)O2)c(=O)n1 [Decitabine, 4-amino-1-(2-deoxy-β-D-erythro-pentofuranosyl)-1,3,5-triazin-2(1H)-one]
1-year survival (AML patients; [3]): 36.7%
CR rate (AML patients; [3]): 18.4%
Median overall survival (AML patients; [3]): 5.5 months
1-year survival (AML patients; [4]): 27.5%
CR rate (AML patients; [4]): 2.5%
Median overall survival (AML patients; [4]): 4.9 months
1-year survival (AML patients; Antecedent MDS/MPN: No): 35.5%
CR median duration (AML patients; Antecedent MDS/MPN: No): 10.4 months
CR rate (AML patients; Antecedent MDS/MPN: No): 12.9%
Median overall survival (AML patients; Antecedent MDS/MPN: No): 6.7 months
1-year survival (AML patients; Antecedent MDS/MPN: Yes): 32.9%
CR median duration (AML patients; Antecedent MDS/MPN: Yes): 7.1 months
CR rate (AML patients; Antecedent MDS/MPN: Yes): 5.7%
Median overall survival (AML patients; Antecedent MDS/MPN: Yes): 5.0 months
1-year survival (AML patients; [5]): 31.8%
CR rate (AML patients; [5]): 5.7%
Median overall survival (AML patients; [5]): 5.6 months
1-year survival (AML patients; [6]): 30.0%
CR rate (AML patients; [6]): 0%
Median overall survival (AML patients; [6]): 3.0 months
1-year survival (AML patients; SWOG category Not Unfavourable): 35.9%
CR rate (AML patients; SWOG category Not Unfavourable): 11.6%
Median overall survival (AML patients; SWOG category Not Unfavourable): 5.7 months
1-year survival (AML patients; SWOG category Unfavourable): 33.0%
CR rate (AML patients; SWOG category Unfavourable): 9.6%
Median overall survival (AML patients; SWOG category Unfavourable): 5.7 months
Patients aged 80 and over, median overall survival (AML patients; aged 80 and over, <10,000 WBC): 4.2 months
Median overall survival (AML patients; [7]): 5.7 months
patients achieved CR (AML patients; [7]): 10.8%
1-year survival (AML patients; patients with <10,000 WBC): 32.9%
CR median duration (AML patients; patients with <10,000 WBC): 10.4 months
CR rate (AML patients; patients with <10,000 WBC): 8.6%
Median overall survival (AML patients; patients with <10,000 WBC): 5.8 months
1-year survival (AML patients; patients with ≥10,000 WBC): 38.5%
CR median duration (AML patients; patients with ≥10,000 WBC): 10.1 months
CR rate (AML patients; patients with ≥10,000 WBC): 15.2%
Median overall survival (AML patients; patients with ≥10,000 WBC): 5.5 months

CCCCCCCCCCCCCCCC(=O)Nc1ccn([C@@H]2O[C@H](CO)[C@@H](O)[C@@H]2C#N)c(=O)n1 [Sapacitabine, 1-(2-C-cyano-2-deoxy-β-D-arabino-pentofuranosyl)-N^4-palmitoyl cytosine]
dose-limiting toxicity [1]: myelosuppression
tolerability [1]: well tolerated
anticancer activity (colon cancer): strong anticancer activity
increasing survival and preventing spread of colon cancer metastases to the liver, compared with gemcitabine or 5-FU (colon cancer): superior to either gemcitabine or 5-FU

Nc1ccn([C@@H]2O[C@H](CO)[C@@H](O)[C@@H]2O)c(=O)n1 [cytarabine]
IC50 ([2]; after 5-azacitidine (dCK upregulation)): 0.55 µM
IC50 ([2]; before 5-azacitidine): 12.5 µM

From patent US20200129509A1, “DOSING REGIMEN” (Cyclacel Limited, priority 2018, published 2020)
